Results on 1 compound are retold here after patent publication US20050209140A1, “Methods of controlling axonal growth” (MASSACHUSETTS INSTITUTE OF TECHNOLOGY, priority 1996, published 2005).

Experiment [1] has as its system retinal ganglion cells (RGCs). The experiment in a line: Dissociated retinal cell culture: survival and neurite outgrowth of prelabeled RGCs. In kind it is cell-based, mouse. The procedure: (§1) Primary cultures of dissociated retinal cells were prepared from P2 wild-type or transgenic animals. RGCs were prelabeled by injecting DiI solution (25% in Dimethyl Formamide) into the tectal region bilaterally in P0 pups. Cells were plated in 24-cell wells treated with poly-L-lysine ([…], 4° C. overnight) and coated with Human Merosin ([…], r.t., 2 hr)(Meyer-Franke, A. and Barres, B. A. Neuron 15, 805-819 (1995)). Cultures were maintained for 2 to 3 days in NeuralBasal medium supplemented with B27. Trypan blue staining was used to examine the viability of retinal ganglion cells (RGCs). Retinotectal cocultures prepared from wild-type P2 mice were described previously and ZVAD (Z-Val-Ala-Asp-CH2F, Enzyme Systems Products) was added to the culture medium at the time of plating. Cell death was detected by staining with the fluorescent dye, SYTOX green fluorescent dead cell stain (Molecular Probes). Cultures were visualized under an inverted Nikon microscope equipped with Nomarski and epifluorescence illumination.
Whether these two activities of neurons, survival and axonal growth, can be separated in vitro was next examined. […]

For another experiment, the system named is retinal explants (RGCs). Kind of experiment: Retinotectal explant coculture: cell death in retinal explants and retinal axon growth into tectal slices. It is filed as cell-based, mouse. The procedure:
Brains were dissected into ice-cold Gey's balanced salt solution enriched with glucose. […] Retinal explants were abutted against tectal slices. Tissues were placed on the microporous membrane of Millicell wells (Millipore) and maintained in NeuralBasal medium supplemented with B27 (GIBCO Inc., New York) at 37° C. for five days. To exclude the possibility that tectal tissues from mutant mice may affect axonal growth of RGCs, a series of parallel experiments were perforemd in which one retinal explant of each mouse was confronted with the tectum from the same mouse, while the second retinal explant was placed against the tectum from another mouse. With this arrangement, retinal explants from each animal had the possibility of being cocultured with the tectum from a wild-type, heterozygous, or homozygous animal. The number of regenerating axons was sampled by applying the lipophilic carbocyanine fluorescent label, DiI, in crystals to fixed retinal explants. The cocultures were stored in fixative for two-four weeks to allow diffusion of the dye, and labeled retinal axons were viewed with a fluorescence microscope (Nikon).
as §1
The effect of the ICE inhibitor was also tested in the explant coculture system with tissue prepared from wild-type P2 mice.

“Also recorded” adds a separate entry of the source. Where a SMILES comes first, the peptide text is derived from it.

On to `CC(C)[C@H](NC(=O)OCc1ccccc1)C(=O)N[C@@H](C)C(=O)N[C@@H](CC(=O)O)C(=O)CF` [ZVAD, Z-Val-Ala-Asp-CH2F] (HELM PEPTIDE1{[O=C(OCc1ccccc1)[*:2]].V.A.D.[FC[*:1]]}$$$$V2.0), for which the “neurite outgrowth of labeled RGCs in dissociated culture” value in experiment [1] (ZVAD-treated RGCs from wild-type P2 animals, no neurotrophic factors added, n=36) was “round and devoid of neurites”. For the same compound, the “RGC death in dissociated retinal cell culture” value in experiment [1] (retinae of P2 pups, ZVAD at a concentration of 10 mM or above, after 2 days in culture) is given as “effectively reduced RGC death”. Moreover, the “ability to promote axonal growth” value with retinal explants (RGCs) (overall conclusion of the ZVAD experiments) is “not sufficient to promote axonal growth; also recorded: not sufficient to support axonal growth”. Moreover, the “protection of cells from death in retinal explants compared with bcl-2 transgenic mouse” value with retinal explants (RGCs) (wild-type P2 mice) is given as “protected cells from death almost as well as bcl-2”. In addition, the “number of growing retinal axons with increasing concentration of ZVAD” value with retinal explants (RGCs) (wild-type P2 mice, ZVAD 50, 100, 200 µM) is on record as “did not change significantly”. For the same compound, the “extent of cell death in retinal explants” value with retinal explants (RGCs) (wild-type P2 mice, ZVAD 50, 100, 200 µM, SYTOX green dead cell stain) is listed as “reduced the extent of cell death; also recorded: number of dying cells in retinal explants decreased”. The “number of axons that invaded tectal slices, ZVAD-treated wild-type cultures versus bcl-2 transgenic mice” value with retinal explants (RGCs) (wild-type P2 mice, fold less than bcl-2 transgenic) is 10 fold.
